Assay: recombinant UMI read abundance after kanamycin selection (control-corrected) (log10(CPM+1)); higher = more efficient recombination; extreme values may be limits of the assay; sequences stand for … in AGTGCAGAGAAAATCGGCCAGTTTTCTCTGCCTGCAGTCCGCATGCCGTGGGACCCCTTGGGTTCTAACCTGTTGCCTAGATTTATGCAGCGGACTGCCTTTCTCCCAAAGTGATAAACCGG…AGGTTGGTTTCACT; site = the 11-nt donor
How it was run: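 For the IS621 bridge recombinase, a pooled Escherichia coli screen tested donor and donor-binding-loop pairs. Cells received the pair library together with a target plasmid encoding a fixed target and T7-inducible recombinase, then went onto IPTG (0.07 mM) plus kanamycin or unselected plates in duplicate. After PCR across the donor–target junction and sequencing, recombinant UMI counts were normalized to CPM, averaged, and scaled by control-derived factors. Each value is given as log10(CPM+1).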
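Further: IS621 bridge recombinase in Escherichia coli cells against a fixed T5 target plasmid.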

| Sequence | recombinant UMI read abundance (log10) |
| --- | --- |
| CACTGCCCATGGACCGGTTTTCCCGGTAATCCGTATTTGTT (site CACTGCCCTAA) | 0.276 |
| CACTGCTCATGGACCGGTTTTCCCGGTAATCCGTATTTGAA (site CAATGCTCTTT) | 0.0153 |
| CACTGCTCATGGACCGGTTTTCCCGGTAATCCGTATTTGAA (site CACTGCTCTTT) | 2.09 |
| CACTGCTCATGGACCGGTTTTCCCGGTAATCCGTATTTGAA (site CAGTGCTCTTT) | 0.00554 |
| CACTGCTCATGGACCGGTTTTCCCGGTAATCCGTATTTGAA (site CATTGCTCTTT) | 0.0128 |
| CACTGGACATGGACCGGTTTTCCCGGTAATCCGTATTTGGT (site CACTGGACTAC) | 1.24 |
| CAGAAAACATGGACCGGTTTTCCCGGTAATCCGTATTTGGG (site CAGAAAACTCC) | 0.991 |
| CAGACATCATGGACCGGTTTTCCCGGTAATCCGTATTTGCT (site CAGACATCTAG) | 2.46 |
| CAGACATCATGGACCGGTTTTCCCGGTAATCCGTATTTGCT (site CCGACATCTAG) | 1.06 |
| CAGACATCATGGACCGGTTTTCCCGGTAATCCGTATTTGCT (site CGGACATCTAG) | 1.16 |
| CAGACATCATGGACCGGTTTTCCCGGTAATCCGTATTTGCT (site CTGACATCTAG) | 1.42 |
| CAGACCGCATGGACCGGTTTTCCCGGTAATCCGTATTTGAT (site CAGACCGCTAT) | 2.7 |
| CAGACGCCATGGACCGGTTTTCCCGGTAATCCGTATTTGAC (site CAGACGCCTGT) | 1.91 |
| CAGACGGCATGGACCGGTTTTCCCGGTAATCCGTATTTGGG (site CAGACGGCTCC) | 0.191 |
| CAGAGAGCATGGACCGGTTTTCCCGGTAATCCGTATTTGTA (site CAGAGAGCTTA) | 2.94 |
| CAGCACGCATGGACCGGTTTTCCCGGTAATCCGTATTTGGT (site CAGCACGCTAC) | 1.61 |
| CAGCCCACATGGACCGGTTTTCCCGGTAATCCGTATTTGAA (site CAGCCCACTTT) | 1.15 |
| CAGCTATCATGGACCGGTTTTCCCGGTAATCCGTATTTGTC (site CAGCTATCTGA) | 3.3 |
| CAGGAGTCATGGACCGGTTTTCCCGGTAATCCGTATTTGCC (site CAGGAGTCTGG) | 3.4 |
| CAGGAGTCATGGACCGGTTTTCCCGGTAATCCGTATTTGCC (site CCGGAGTCTGG) | 0 |
| CAGGAGTCATGGACCGGTTTTCCCGGTAATCCGTATTTGCC (site CGGGAGTCTGG) | 0 |
| CAGGAGTCATGGACCGGTTTTCCCGGTAATCCGTATTTGCC (site CTGGAGTCTGG) | 1.73 |
| CAGGCAGCATGGACCGGTTTTCCCGGTAATCCGTATTTGCT (site CAAGCAGCTAG) | 1.66 |
| CAGGCAGCATGGACCGGTTTTCCCGGTAATCCGTATTTGCT (site CACGCAGCTAG) | 0 |
| CAGGCAGCATGGACCGGTTTTCCCGGTAATCCGTATTTGCT (site CAGGCAGCTAG) | 1.92 |

| Sequence | recombinant UMI read abundance (log10) |
| --- | --- |
| CAGGCAGCATGGACCGGTTTTCCCGGTAATCCGTATTTGCT (site CATGCAGCTAG) | 0 |
| CAGGCGACATGGACCGGTTTTCCCGGTAATCCGTATTTGGG (site CAGACGACTCC) | 0.0355 |
| CAGGCGACATGGACCGGTTTTCCCGGTAATCCGTATTTGGG (site CAGCCGACTCC) | 0.0323 |
| CAGGCGACATGGACCGGTTTTCCCGGTAATCCGTATTTGGG (site CAGGCGACTCC) | 0.209 |
| CAGGCGACATGGACCGGTTTTCCCGGTAATCCGTATTTGGG (site CAGTCGACTCC) | 0.0086 |
| CAGGGCACATGGACCGGTTTTCCCGGTAATCCGTATTTGGA (site CAGGGCACTTC) | 0.471 |
| CAGGTCGCATGGACCGGTTTTCCCGGTAATCCGTATTTGAT (site CAGGTCGCTAT) | 2.33 |
| CAGTCAACATGGACCGGTTTTCCCGGTAATCCGTATTTGGG (site CAGTCAACTCC) | 0.146 |
| CAGTCAACATGGACCGGTTTTCCCGGTAATCCGTATTTGGG (site CAGTCCACTCC) | 0.018 |
| CAGTCAACATGGACCGGTTTTCCCGGTAATCCGTATTTGGG (site CAGTCGACTCC) | 0.0226 |
| CAGTCAACATGGACCGGTTTTCCCGGTAATCCGTATTTGGG (site CAGTCTACTCC) | 0.0255 |
| CAGTCGACATGGACCGGTTTTCCCGGTAATCCGTATTTGGT (site CAGTCGACTAC) | 1.13 |
| CAGTCGACATGGACCGGTTTTCCCGGTAATCCGTATTTGGT (site CAGTCGACTCC) | 0.0077 |
| CAGTCGACATGGACCGGTTTTCCCGGTAATCCGTATTTGGT (site CAGTCGACTGC) | 1.41 |
| CAGTCGACATGGACCGGTTTTCCCGGTAATCCGTATTTGGT (site CAGTCGACTTC) | 0.56 |
| CAGTGCTCATGGACCGGTTTTCCCGGTAATCCGTATTTGGT (site CAGTGCTCTAC) | 2.49 |
| CAGTTGACATGGACCGGTTTTCCCGGTAATCCGTATTTGGG (site CAGTAGACTCC) | 0 |
| CAGTTGACATGGACCGGTTTTCCCGGTAATCCGTATTTGGG (site CAGTCGACTCC) | 0.0208 |
| CAGTTGACATGGACCGGTTTTCCCGGTAATCCGTATTTGGG (site CAGTGGACTCC) | 0.00569 |
| CAGTTGACATGGACCGGTTTTCCCGGTAATCCGTATTTGGG (site CAGTTGACTCC) | 0.53 |
| CATAAAGCATGGACCGGTTTTCCCGGTAATCCGTATTTGAT (site CATAAAGCTAT) | 2.1 |
| CATAAAGCATGGACCGGTTTTCCCGGTAATCCGTATTTGAT (site CCTAAAGCTAT) | 0.00418 |
| CATAAAGCATGGACCGGTTTTCCCGGTAATCCGTATTTGAT (site CGTAAAGCTAT) | 0.166 |
| CATAAAGCATGGACCGGTTTTCCCGGTAATCCGTATTTGAT (site CTTAAAGCTAT) | 0 |
| CATACGCCATGGACCGGTTTTCCCGGTAATCCGTATTTGGG (site CATACGCCTCC) | 0.0136 |

| Sequence | recombinant UMI read abundance (log10) |
| --- | --- |
| CATCAGCCATGGACCGGTTTTCCCGGTAATCCGTATTTGAG (site CATCAGCCTCT) | 0.441 |
| CATCAGTCATGGACCGGTTTTCCCGGTAATCCGTATTTGCA (site CATCAGTCTTG) | 3.13 |
| CATCCAACATGGACCGGTTTTCCCGGTAATCCGTATTTGTC (site CATCCAACTGA) | 2.17 |
| CATCGCACATGGACCGGTTTTCCCGGTAATCCGTATTTGGC (site CATCGCACTGC) | 2.26 |
| CATCGCCCATGGACCGGTTTTCCCGGTAATCCGTATTTGAT (site CATCGCCCTAT) | 0.725 |
| CATCTCTCATGGACCGGTTTTCCCGGTAATCCGTATTTGTA (site CATCTCTCTTA) | 2.66 |
| CATCTCTCATGGACCGGTTTTCCCGGTAATCCGTATTTGTA (site CCTCTCTCTTA) | 1.42 |
| CATCTCTCATGGACCGGTTTTCCCGGTAATCCGTATTTGTA (site CGTCTCTCTTA) | 1.23 |
| CATCTCTCATGGACCGGTTTTCCCGGTAATCCGTATTTGTA (site CTTCTCTCTTA) | 1.98 |
| CATGAGGCATGGACCGGTTTTCCCGGTAATCCGTATTTGGT (site CATGAGGCTAC) | 1.12 |
| CATGCCTCATGGACCGGTTTTCCCGGTAATCCGTATTTGCT (site CATGCCTCTAG) | 2.76 |
| CATGGAACATGGACCGGTTTTCCCGGTAATCCGTATTTGGA (site CATGGAACTTC) | 1.99 |
| CATGGCACATGGACCGGTTTTCCCGGTAATCCGTATTTGGA (site CATGGCACTTC) | 0.46 |
| CATGTCACATGGACCGGTTTTCCCGGTAATCCGTATTTGGG (site CAAGTCACTCC) | 0.0107 |
| CATGTCACATGGACCGGTTTTCCCGGTAATCCGTATTTGGG (site CACGTCACTCC) | 0.0251 |
| CATGTCACATGGACCGGTTTTCCCGGTAATCCGTATTTGGG (site CAGGTCACTCC) | 0.0142 |
| CATGTCACATGGACCGGTTTTCCCGGTAATCCGTATTTGGG (site CATGTCACTCC) | 0.00831 |
| CATGTGGCATGGACCGGTTTTCCCGGTAATCCGTATTTGCT (site CATGTGGCTAG) | 1.39 |
| CATGTTCCATGGACCGGTTTTCCCGGTAATCCGTATTTGTT (site CATGTTCCTAA) | 0.678 |
| CATTCAACATGGACCGGTTTTCCCGGTAATCCGTATTTGAC (site CATTCAACTGT) | 0.406 |
| CATTGTACATGGACCGGTTTTCCCGGTAATCCGTATTTGGG (site CATTGTACTCC) | 0.0267 |
| CATTTCTCATGGACCGGTTTTCCCGGTAATCCGTATTTGTT (site CATTTCTCTAA) | 1.52 |
| CATTTGCCATGGACCGGTTTTCCCGGTAATCCGTATTTGTG (site CATTTGCCTCA) | 0.302 |
| CCAAAACCATGGACCGGTTTTCCCGGTAATCCGTATTTGTT (site CCAAAACCTAA) | 0.00598 |
| CCAAAGGCATGGACCGGTTTTCCCGGTAATCCGTATTTGCC (site CCAAAGGCTGG) | 0 |

From the supplement of paper PMC11208160
